Experimental data taken from PMC7582770, “Synthesis of “All-Cis” Trihydroxypiperidines from a Carbohydrate-Derived Ketone: Hints for the Design of New β-Gal and GCase Inhibitors” (Molecules, 2020).
Positions count from the first letter of the chain named. “Also recorded” adds a separate entry of the source.

Columns and labels:
[1] = target: T1, GCase in fibroblasts with the N370S/RecNcil mutation (Homo sapiens, UniProt P04062, N409S); test: Pharmacological chaperoning activity (GCase activity in Gaucher patient fibroblasts); type: cell-based; conditions: six concentrations (10 nM to 100 µM), 4 days incubation
T1 construct: Fibroblasts with the N370S/RecNcil mutation from patients with Gaucher disease; host or cells: human Gaucher patient fibroblasts, N370S/RecNciI
T1 sequence (P04062 40-536 N409S): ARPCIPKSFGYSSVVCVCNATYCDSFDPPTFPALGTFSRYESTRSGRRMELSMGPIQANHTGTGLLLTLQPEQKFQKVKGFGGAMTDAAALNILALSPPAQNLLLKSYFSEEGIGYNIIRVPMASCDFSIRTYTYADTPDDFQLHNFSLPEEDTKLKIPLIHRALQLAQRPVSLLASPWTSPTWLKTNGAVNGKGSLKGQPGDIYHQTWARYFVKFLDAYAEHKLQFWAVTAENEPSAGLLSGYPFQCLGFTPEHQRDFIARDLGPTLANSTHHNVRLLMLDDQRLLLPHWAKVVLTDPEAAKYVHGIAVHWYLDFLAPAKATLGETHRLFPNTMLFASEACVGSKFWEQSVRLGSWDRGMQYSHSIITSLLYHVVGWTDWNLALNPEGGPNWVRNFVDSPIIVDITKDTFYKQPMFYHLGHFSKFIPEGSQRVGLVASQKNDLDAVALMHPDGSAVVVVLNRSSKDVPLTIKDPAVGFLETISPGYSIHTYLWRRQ
Procedure: Fibroblasts with the N370S/RecNcil mutation from patients with Gaucher disease were obtained from the “Cell line and DNA Biobank from patients affected by Genetic Diseases” (Gaslini Hospital, Genova, Italy). Fibroblasts cells (15.0 × 10^4) were seeded in T25 flasks with DMEM supplemented with fetal bovine serum (10%), penicillin/streptomycin (1%), and glutamine (1%) and incubated at 37 °C with 5% CO2 for 24 h. The medium was removed, and fresh medium containing compound 10 was added to the cells and left for 4 days. The medium was removed, and the cells were washed with PBS and detached with trypsin to obtain cell pellets, which were washed four times with PBS, frozen, and lysed by sonication in water. Enzyme activity was measured as reported above. Reported data are mean S.D. (n = 2).
Pharmacological chaperoning activity
Fibroblasts with the N370S/RecNcil mutation from Gaucher disease patients were obtained from the “Cell line and DNA Biobank from patients affected by Genetic Diseases” (Gaslini Hospital, Genova, Italy). Fibroblasts cells (20.0 x 104) were seeded in T25 flasks with DMEM supplemented with fetal bovine serum (10%), penicillin/streptomycin (1%), and glutamine (1%) and incubated at 37 °C with 5% CO2 for 24 h. The medium was removed, and fresh medium containing the compounds 9, 10 or 12 at different concentrations (10 nM, 100 nM, 1 µM, 10 µM, 50 µM, 100 µM) was added to the cells and left for 4 days. The medium was removed, and the cells were washed with PBS and detached with trypsin to obtain cell pellets, which were washed four times with PBS, frozen and lysed by sonication in water. Enzyme activity was measured as reported above. Reported data are mean S.D. (n=2).
Figure S52: GCase activity in human fibroblasts derived from GD patients bearing N370/RecNcil mutations in the presence of compound 9.
Figure S53: GCase activity in human fibroblasts derived from GD patients bearing N370/RecNcil mutations in the presence of compound 10. The flasks containing cells incubated with 100 µM and 50 µM […]

[2] = target: T2, human lysosomal β-glucosidase (GCase) (Homo sapiens, UniProt P04062); test: GCase inhibition in human leukocyte homogenates; type: biochemical; conditions: human leukocytes extracts; for inhibition at 1000 µM / GCase Inhibition (%): compounds 1 mM; for IC50: 4-methylumbelliferyl-β-D-glucoside 3.33 mM
T2 construct: in leukocytes isolated from healthy donors (controls); endogenous in cells; host or cells: human leukocytes from healthy donors, disrupted by sonication (crude homogenate)
T2 sequence (P04062 40-536): T1 sequence (P04062 40-536 N409S) with S370N
Procedure: The new compounds were screened at 1 mM concentration towards β-galactosidase (β-Gal) and β-glucosidase (GCase) in leukocytes isolated from healthy donors (controls). Isolated leukocytes were disrupted by sonication, and a Micro BCA Protein Assay Kit (Sigma–Aldrich, St. Louis, MO, USA) was used to determine the total protein amount for the enzymatic assay, according to the manufacturer’s instructions.
GCase activity was measured in a flat-bottomed 96-well plate. Compound solution (3 µL), 4.29 µg/µL leukocytes homogenate (7 µL), and substrate 4-methylumbelliferyl-β-D-glucoside (3.33 mM, 20 µL, Sigma–Aldrich Chemie Gmbh, Munich, Germany)) in citrate/phosphate buffer (0.1:0.2, M/M, pH 5.8) containing sodium taurocholate (0.3%) and Triton X-100 (0.15%) at 37 °C were incubated for 1 h. The reaction was stopped by addition of sodium carbonate (200 µL; 0.5 M, pH 10.7) containing Triton X-100 (0.0025%), and the fluorescence of 4-methylumbelliferone released by β-glucosidase activity was measured in SpectraMax M2 Microplate Reader (λex = 365 nm and λem = 435 nm; Molecular Devices LLC, San Jose, CA, US). Percentage GCase inhibition is given with respect to the control (without compound). Data are mean SD (n = 3). For compounds showing GCase inhibitory activity higher than 80% at 1 mM concentration, the IC50 values were determined by measuring the initial hydrolysis rate with 4-methylumbelliferyl-β-D-glucoside (3.33 mM). Data obtained were fitted by using the appropriate equation (for more details, see the Supplementary Materials).
IC50 for compounds 9, 10, 12 and 21 towards human lysosomal β-glucosidase The IC50 values of inhibitors against β-glucosidase were determined by measuring the initial hydrolysis rate with 4-methylumbelliferyl-β-D-glucoside (3.33 mM). Data obtained were fitted to the following equation using the Origin Microcal program. where Vi/Vo, represent the ratio between the activity measured in the presence of the inhibitor (Vi) and the activity of the control without the inhibitor (V0), “x” the inhibitor concentration, Max and Min, the maximal and minimal enzymatic activity observed, respectively.
Figure S48: IC of compound 9 towards GCase
Figure S49: IC50 of compound 10 towards GCase
(also on this page, place not known: Min x MinMax Vo Vi slope + […] […] […] […] […] […]+ −= 1 be tween (V i) (V 0), IC50) […]

SMILES | GCase enzyme rescue (chaperoning activity) [1] | inhibition at 1000 µM [2] [%] | GCase Inhibition (%) ([2]; listed as C00009) | IC50 [2] [µM] | GCase Inhibition (%) ([2]; listed as C00010) | GCase Inhibition (%) ([2]; listed as C00012) | GCase Inhibition (%) ([2]; listed as C00016)
CCCCCCCCCO[C@H]1CNC[C@@H](O)[C@H]1O [compound 9, (3S, 4R, 5R)-4,5-Dihydroxy-3-(Nonyloxy) Piperidine] | did not impart any enzyme rescue; also recorded: None of the compounds gave enzyme rescue | > 90 | 98 | 12 ± 6 | – | – | –
CCCCCCCCCCCCN[C@H]1CNC[C@@H](O)[C@H]1O [compound 10, (3R, 4S, 5S)-3,4-Dihydroxy-5-(Dodecylamino) Piperidine] | failed to rescue the enzyme activity; also recorded: did not impart any enzyme rescue; also recorded: None of the compounds gave enzyme rescue | > 90 | – | 6.4 ± 0.7 | 100 | – | –
CCCCCCCC[C@]1(O)CNC[C@@H](O)[C@H]1O [compound 12, (3S, 4R, 5R)-3,4,5-Trihydroxy-3-Octyl-Piperidine] | did not impart any enzyme rescue; also recorded: None of the compounds gave enzyme rescue | > 90 | – | 60 ± 23 | – | 93 | –
CCCCCCCCCO[C@@H]1CNC[C@@H](O)[C@H]1O [compound 21, (3R, 4R, 5R)-4,5-Dihydroxy-3-(Nonyloxy) Piperidine] | – | > 90 | – | 130 ± 13 | – | – | 100
